Assay results taken from US12485114B2, “Materials and methods useful to induce cancer cell death via methuosis or autophagy or a combination thereof” (The University of Toledo, priority 2017, dated 2025).

How the values were obtained:
[1] = test system: macropinocytosis; assay: Lucifer yellow dye uptake (macropinocytosis); type: cell-based; conditions: 10 μM, 6 h treatment
Text: (§1) BAPT-27 induced vacuoles that combine both methuosis and autophagy characteristics. […] The author mechanism involved in this non-conventional cell death mechanism is a special type of […] that has been termed methuosis. The treatment of cells by BAPT-27 caused the displacement of the cytoplasm by vacuoles derived from macropinosomes. At early time points, the vacuoles are small in size. The small vacuoles then increase in number, and then fuse with each other over time forming larger vacuoles that cover the whole cytoplasm. Eventually, this causes a disturbance of the cell membrane and burst of the cells, release of fluids, detachment of cell, and death. […] Accordingly, alteration in both autophagic and methuosis mechanisms are involved in the BAPT-27 cell death process.

[2] = test system: HCT116 cells; assay: Electron microscopy of treated cells; type: cell-based
Protocol: The vacuoles are indicated by V in FIG. 31. The single membranes of the vacuoles are destroyed (indicated by arrows in FIG. 31), allowing small vacuoles to merge, forming bigger vacuoles.
The vacuoles are fluid filled with traces of membranes due to vacuoles fusion events. The nuclei are healthy with no signs of chromatin condensation and are unaffected at even a high concentration (30 μM). However, as the vacuoles coalesce and grow in size, the nuclei are pushed on the edges of the cells. The nuclei are indicated by white N, and the vacuoles are indicated by black arrows, in FIG. 32.
(FIG. 38). The ER is indicated by black arrows.

[3] = test system: lysosomes; assay: Lysotracker red dye accumulation; type: cell-based
[4] = test system: NSCLC cells resistant to apoptosis; assay: Activity in apoptosis-resistant NSCLC cells; type: cell-based
Text: (FIG. 46). NSCLC cells resistant to apoptosis are also sensitive to the activities of BAPT-27.

[5] = molecular target: T1, JNK2 (Homo sapiens, UniProt P45984); assay: Kinome screening (DiscoverX) against 468 kinases; type: binding
T1 construct: purchased DiscoverX (KINOMEscan)
T1 sequence (P45984 whole entry): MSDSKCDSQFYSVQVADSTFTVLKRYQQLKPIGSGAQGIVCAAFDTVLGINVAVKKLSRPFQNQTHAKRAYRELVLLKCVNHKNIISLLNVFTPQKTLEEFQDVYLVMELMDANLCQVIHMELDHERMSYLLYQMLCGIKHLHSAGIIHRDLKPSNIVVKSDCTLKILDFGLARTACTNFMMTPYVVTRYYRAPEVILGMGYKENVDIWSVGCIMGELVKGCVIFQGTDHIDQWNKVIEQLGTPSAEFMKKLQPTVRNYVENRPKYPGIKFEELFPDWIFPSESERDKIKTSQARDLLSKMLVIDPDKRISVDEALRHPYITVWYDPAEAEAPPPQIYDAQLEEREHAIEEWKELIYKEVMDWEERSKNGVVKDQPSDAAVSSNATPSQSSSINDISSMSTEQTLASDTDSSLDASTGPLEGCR
Protocol: (§2) FIG. 49A: Image showing the effect of Image was generated using TREEspot™ Software Tool and reprinted with permission from KINOMEscan®, a division of DiscoveRx Corporation, @ DISCOVERX CORPORATION 2010. Selectivity Score or S-score is a quantitative measure of compound selectivity. It was calculated by dividing the number of kinases that BAPT-27 bind to by the total number of distinct kinases tested, excluding mutant variants.

[6] = test system: FLT3(ITD, D835V); assay: Kinome screening (DiscoverX) against 468 kinases; type: binding
Protocol: as §2

[7] = molecular target: T2, ABL1 T315I (Homo sapiens, UniProt P00519, T315I); assay: Kinome screening (DiscoverX) against 468 kinases; type: binding
T2 construct: purchased DiscoverX (KINOMEscan)
Protocol: as §2

[8] = molecular target: T3, JNK1 (Homo sapiens, UniProt P45983); assay: Kinome screening (DiscoverX) against 468 kinases; type: binding
T3 construct: purchased DiscoverX (KINOMEscan)
T3 sequence (P45983 whole entry): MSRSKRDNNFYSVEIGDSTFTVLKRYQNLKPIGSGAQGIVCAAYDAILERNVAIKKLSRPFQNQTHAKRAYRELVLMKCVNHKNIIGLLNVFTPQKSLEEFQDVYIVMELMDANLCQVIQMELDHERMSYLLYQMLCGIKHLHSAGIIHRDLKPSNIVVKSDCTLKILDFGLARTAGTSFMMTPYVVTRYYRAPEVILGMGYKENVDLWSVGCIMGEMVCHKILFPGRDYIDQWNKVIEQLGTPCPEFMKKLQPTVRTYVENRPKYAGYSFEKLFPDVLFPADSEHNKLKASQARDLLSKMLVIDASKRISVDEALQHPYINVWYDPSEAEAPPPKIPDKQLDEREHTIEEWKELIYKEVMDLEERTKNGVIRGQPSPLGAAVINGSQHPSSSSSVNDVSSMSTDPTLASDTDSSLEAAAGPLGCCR
Protocol: as §2

[9] = molecular target: T4, phosphoinositide 5-kinase (PIKfyve) (Homo sapiens, UniProt Q9Y2I7); assay: Kinome screening (DiscoverX) against 468 kinases; type: binding
T4 construct: purchased DiscoverX (KINOMEscan)
T4 sequence (Q9Y2I7 whole entry): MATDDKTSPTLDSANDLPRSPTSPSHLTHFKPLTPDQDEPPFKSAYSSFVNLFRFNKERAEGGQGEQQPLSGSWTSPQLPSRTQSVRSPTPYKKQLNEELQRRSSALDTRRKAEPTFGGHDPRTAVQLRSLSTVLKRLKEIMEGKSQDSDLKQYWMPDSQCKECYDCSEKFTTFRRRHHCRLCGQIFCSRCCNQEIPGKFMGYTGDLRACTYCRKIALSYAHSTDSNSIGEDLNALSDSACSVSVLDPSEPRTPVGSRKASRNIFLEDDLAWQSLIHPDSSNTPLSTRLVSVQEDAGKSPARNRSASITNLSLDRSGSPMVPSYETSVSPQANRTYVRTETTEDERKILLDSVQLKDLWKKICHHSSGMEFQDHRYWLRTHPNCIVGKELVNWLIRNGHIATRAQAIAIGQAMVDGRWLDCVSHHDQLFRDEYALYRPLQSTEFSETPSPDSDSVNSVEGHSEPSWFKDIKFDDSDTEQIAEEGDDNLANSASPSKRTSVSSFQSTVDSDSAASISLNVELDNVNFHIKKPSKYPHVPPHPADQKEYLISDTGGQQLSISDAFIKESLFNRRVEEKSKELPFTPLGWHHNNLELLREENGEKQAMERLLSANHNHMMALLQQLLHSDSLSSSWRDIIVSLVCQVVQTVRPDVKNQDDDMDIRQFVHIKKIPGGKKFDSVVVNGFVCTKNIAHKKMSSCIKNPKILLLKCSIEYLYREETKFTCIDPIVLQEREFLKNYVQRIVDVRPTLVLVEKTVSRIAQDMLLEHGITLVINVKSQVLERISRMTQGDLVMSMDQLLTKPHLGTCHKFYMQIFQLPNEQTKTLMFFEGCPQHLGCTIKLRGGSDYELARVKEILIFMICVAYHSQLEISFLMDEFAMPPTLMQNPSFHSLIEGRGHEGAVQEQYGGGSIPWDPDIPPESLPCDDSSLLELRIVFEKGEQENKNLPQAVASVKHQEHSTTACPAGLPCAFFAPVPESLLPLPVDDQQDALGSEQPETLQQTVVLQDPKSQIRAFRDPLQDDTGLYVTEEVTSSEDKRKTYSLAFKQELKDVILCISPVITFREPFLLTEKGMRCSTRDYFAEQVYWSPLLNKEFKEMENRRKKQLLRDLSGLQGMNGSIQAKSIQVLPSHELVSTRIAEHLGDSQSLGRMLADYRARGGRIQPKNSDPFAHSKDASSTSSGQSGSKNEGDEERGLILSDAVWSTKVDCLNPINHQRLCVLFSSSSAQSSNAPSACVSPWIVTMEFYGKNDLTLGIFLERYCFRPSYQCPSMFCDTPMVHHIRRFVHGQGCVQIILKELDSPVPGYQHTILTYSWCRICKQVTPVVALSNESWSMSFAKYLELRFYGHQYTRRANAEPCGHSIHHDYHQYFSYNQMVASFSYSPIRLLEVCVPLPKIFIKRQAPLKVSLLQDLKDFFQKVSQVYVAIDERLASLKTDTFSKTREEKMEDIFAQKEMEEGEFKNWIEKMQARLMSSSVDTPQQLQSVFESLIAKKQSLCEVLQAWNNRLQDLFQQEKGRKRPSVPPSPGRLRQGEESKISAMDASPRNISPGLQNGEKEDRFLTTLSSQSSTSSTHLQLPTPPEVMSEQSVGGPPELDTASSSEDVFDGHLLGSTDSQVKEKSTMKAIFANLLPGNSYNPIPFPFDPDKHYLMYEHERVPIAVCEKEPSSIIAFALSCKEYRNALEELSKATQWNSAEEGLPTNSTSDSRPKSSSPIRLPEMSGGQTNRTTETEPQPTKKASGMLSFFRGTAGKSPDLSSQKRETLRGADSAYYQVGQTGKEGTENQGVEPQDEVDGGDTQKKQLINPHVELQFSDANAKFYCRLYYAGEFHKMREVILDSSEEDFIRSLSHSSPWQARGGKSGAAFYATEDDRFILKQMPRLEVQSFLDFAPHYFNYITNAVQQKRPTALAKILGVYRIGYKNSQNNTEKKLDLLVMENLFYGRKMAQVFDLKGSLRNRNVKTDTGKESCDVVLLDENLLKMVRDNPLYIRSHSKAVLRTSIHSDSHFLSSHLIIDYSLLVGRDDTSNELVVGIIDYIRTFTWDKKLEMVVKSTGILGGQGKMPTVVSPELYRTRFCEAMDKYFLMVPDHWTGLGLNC
Protocol: as §2

[10] = molecular target: T5, DYRK1A (Homo sapiens, UniProt Q13627); assay: Kinome screening (DiscoverX) against 468 kinases; type: binding
T5 construct: purchased DiscoverX (KINOMEscan)
Protocol: as §2

[11] = molecular target: T6, JNK3 (Homo sapiens, UniProt P53779); assay: Kinome screening (DiscoverX) against 468 kinases; type: binding
T6 construct: purchased DiscoverX (KINOMEscan)
T6 sequence (P53779 whole entry): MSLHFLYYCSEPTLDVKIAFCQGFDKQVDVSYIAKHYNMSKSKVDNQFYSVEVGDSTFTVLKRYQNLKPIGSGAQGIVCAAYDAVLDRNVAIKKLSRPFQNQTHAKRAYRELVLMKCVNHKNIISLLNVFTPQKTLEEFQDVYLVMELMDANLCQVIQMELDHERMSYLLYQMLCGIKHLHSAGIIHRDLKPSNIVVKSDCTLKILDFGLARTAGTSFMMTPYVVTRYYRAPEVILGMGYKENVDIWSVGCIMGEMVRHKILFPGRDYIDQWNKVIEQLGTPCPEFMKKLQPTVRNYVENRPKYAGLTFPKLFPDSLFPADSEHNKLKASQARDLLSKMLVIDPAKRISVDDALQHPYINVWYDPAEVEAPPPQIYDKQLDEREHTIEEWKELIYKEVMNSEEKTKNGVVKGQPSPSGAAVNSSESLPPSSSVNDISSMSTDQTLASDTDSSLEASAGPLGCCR
Protocol: as §2

[12] = molecular target: T7, FLT3(D835V) (Homo sapiens, UniProt P36888, D835V); assay: Kinome screening (DiscoverX) against 468 kinases; type: binding
T7 construct: purchased DiscoverX (KINOMEscan)
Protocol: as §2

[13] = test system: colon, pancreatic, ovarian, lung, and prostate cancer cell lines; assay: Vacuole accumulation in cancer cell lines; type: cell-based
Text: The vacuoles are originated from macropinocytosomes as confirmed by extracellular fluid phase tracers. Vacuolization has been described previously as methuosis. However, the vacuoles induced here combine the characteristics of methuosis, autophagy, enhanced lysosomal activity, and other distinct characteristics.

[14] = test system: HCT-116 (colon cancer); assay: Morphological assessment of vacuolization; type: cell-based
Text: (§3) The methuophagy inducing activities of BAPT-27 were also prominent in different colon cancer cell lines with different genetic profiles. […] (FIG. 42). However, the vacuoles formation was not prominent in normal epithelial colon cells (CRL-1459). (FIG. 42).

[15] = test system: HT29 colon cancer cell line; assay: Morphological assessment of vacuolization; type: cell-based
Text: as §3

[16] = test system: HCT15 colon cancer cell line; assay: Morphological assessment of vacuolization; type: cell-based
Text: as §3

[17] = test system: Transcription factor EB (TFEB)— associated lysosomal and autophagy genes; assay: RNA-seq analysis of TFEB-associated lysosomal and autophagy genes; type: cell-based; conditions: HCT-116, 10 μM, 6 h
Text: Autophagosome and lysosomal homeostasis is governed by transcription factor EB (TFEB)—mTOR signaling pathways (TFEB-mTOR pathway). […] (FIG. 51A & FIG. 51B & FIG. 51C).

[18] = test system: autophagic signaling pathways; assay: Autophagy markers and autophagy inhibitors (acridine orange, LC3B, 3-MA, chloroquine); type: cell-based
Text: as §1
Without wishing to be bound by theory, it is believed that the mechanism by which BAPT-27 is produces its activities is due to alteration in key signaling pathways and several cellular events: (1) significant activation of macropinocytosis (FIGS. 32-33), and (2) significant alteration in autophagic signaling resulting in the accumulation of autophagic markers such as LC3 II and acridine orange (FIG. 37).
At 6 h treatment, the vacuoles were tiny and smaller in size in combination compared to BAPT-27 alone. (FIG. 48). […] (FIG. 48).

Sc1nnc(-c2ccncc2)n1/N=C/c1c[nH]c2ccccc12 [BAPT-27, 4-(((1H-Indol-3-Yl)Methylene)Amino)-5-(Pyridin-4-Yl)-4H-1,2,4-Triazole-3-Thiol]
Lucifer yellow dye in formed vacuoles [1]: Extensive accumulation | formation of single membrane vacuoles (electron microscopy) ([2]; 10 μM): extensive formation of single membrane vacuoles | state of nuclei (electron microscopy) ([2]; high concentration (30 μM)): unaffected | state of endoplasmic reticulum (electron microscopy) ([2]; highest concentration 100 μM): normal and not stressed | lysotracker red dye inside the formed vacuoles [3]: significant accumulation | sensitivity to the activities of BAPT-27 [4]: sensitive | inhibitory potency [5]: shows inhibitory potency | inhibitory potency [6]: shows inhibitory potency | inhibitory potency [7]: shows inhibitory potency | inhibitory potency [8]: shows inhibitory potency | inhibitory potency [9]: shows inhibitory potency | inhibitory potency [10]: shows inhibitory potency | inhibitory potency [11]: shows inhibitory potency | inhibitory potency [12]: shows inhibitory potency | accumulation of fluid filled-cytoplasmic vacuoles [13]: induces the rapid accumulation of extensive fluid filled-cytoplasmic vacuoles | vacuolization [14]: extensive vacuoles formation | vacuolization [15]: extensive vacuoles formation | vacuolization [16]: extensive vacuoles formation | expression of TFEB-associated lysosomal and autophagy genes [17]: upregulated | LC3B cleavage and LC3B loci at the borders of the vacuoles [18]: induced the cleavage of LC3B | acridine orange in vacuoles (activated acidic compartments) [18]: accumulation of acridine orange | inhibition of vacuoles formation or cytotoxic effects by autophagy inhibitors 3-MA and chloroquine [18]: did not inhibit | block of vacuoles formation by 3-methyl adenine ([18]; 3-MA 300 μM, BAPT-27 10 μM, 24 h and 72 hr): does not block | effect of chloroquine on vacuoles formation ([18]; CQ 5 μM, BAPT-27 10 μM, 6 h): delay of vacuoles formation | effect of chloroquine on vacuoles regaining normal size ([18]; CQ 5 μM, BAPT-27 10 μM, 24 h): could not prevent
